# Assay results: the supplement of paper PMC10307832
# Experiments:
# Experiment in all cases: relative viability (nuclei count vs DMSO), 5 days (fraction); higher = more cells survive
# Irinotecan + OSI-027 = compound: CCc1c2c(nc3ccc(OC(=O)N4CCC(N5CCCCC5)CC4)cc13)-c1cc3c(c(=O)n1C2)COC(=O)[C@]3(O)CC [Irinotecan] + COc1cccc2cc(-c3nc([C@H]4CC[C@H](C(=O)O)CC4)n4ncnc(N)c34)[nH]c12 [OSI-027] (partner 0.5 µM)
# In short: (§1)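 A single step with final 0.05% Triton X-100, 1% formaldehyde and 1 ug/ml Hoechst fixed the cells and stained nuclei 5 days after treatment. Lung cancer cell lines in 1536-well plates had been treated by pin tool the day after seeding with one drug alone or a fixed anchor-drug dose plus five library-drug doses (not always all listed) in √10 steps, and nuclei were counted on 4× images. Relative viability is the ratio of nuclei in treated wells to nuclei in vehicle wells, taken as the median of duplicate plates.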
# Irinotecan + Olaparib = compound: CCc1c2c(nc3ccc(OC(=O)N4CCC(N5CCCCC5)CC4)cc13)-c1cc3c(c(=O)n1C2)COC(=O)[C@]3(O)CC [Irinotecan] + O=C(c1cc(Cc2n[nH]c(=O)c3ccccc23)ccc1F)N1CCN(C(=O)C2CC2)CC1 [Olaparib] (partner 8 µM)
# In short: as §1
# MK-8033 + Pictilisib = compound: Cn1cc(-c2cnc3ccc4ccc(CS(=O)(=O)NCc5ccccn5)cc4c(=O)c3c2)cn1 [MK-8033] + CS(=O)(=O)N1CCN(Cc2cc3nc(-c4cccc5[nH]ncc45)nc(N4CCOCC4)c3s2)CC1 [Pictilisib] (partner 1 µM)
# In short: as §1
# MK-8033 + Olaparib = compound: Cn1cc(-c2cnc3ccc4ccc(CS(=O)(=O)NCc5ccccn5)cc4c(=O)c3c2)cn1 [MK-8033] + O=C(c1cc(Cc2n[nH]c(=O)c3ccccc23)ccc1F)N1CCN(C(=O)C2CC2)CC1 [Olaparib] (partner 8 µM)
# In short: as §1
Cell Line,relative viability (Irinotecan + OSI-027; first compound 0.6325 µM),relative viability (Irinotecan + OSI-027; first compound 2 µM),relative viability (Irinotecan + OSI-027; first compound 6.325 µM),relative viability (Irinotecan + OSI-027; first compound 20 µM),relative viability (Irinotecan + Olaparib; first compound 0.6325 µM),relative viability (Irinotecan + Olaparib; first compound 2 µM),relative viability (Irinotecan + Olaparib; first compound 6.325 µM),relative viability (Irinotecan + Olaparib; first compound 20 µM),relative viability (MK-8033 + Pictilisib; first compound 0.02 µM),relative viability (MK-8033 + Pictilisib; first compound 0.06325 µM),relative viability (MK-8033 + Pictilisib; first compound 0.2 µM),relative viability (MK-8033 + Pictilisib; first compound 0.6325 µM),relative viability (MK-8033 + Pictilisib; first compound 2 µM),relative viability (MK-8033 + Olaparib; first compound 0.02 µM),relative viability (MK-8033 + Olaparib; first compound 0.06325 µM),relative viability (MK-8033 + Olaparib; first compound 0.2 µM),relative viability (MK-8033 + Olaparib; first compound 0.6325 µM),relative viability (MK-8033 + Olaparib; first compound 2 µM)
EMC-BAC-2,0.316,0.331,0.274,0.287,0.276,0.292,0.274,0.158,0.59,0.412,0.478,0.502,0.483,0.501,0.477,0.473,0.49,0.479
NCI-H1975,0.558,0.694,0.439,0.137,0.797,0.935,0.323,0.193,0.302,0.266,0.269,0.307,0.315,0.721,0.757,0.789,0.77,0.78
NCI-H1755,0.378,0.652,0.381,0.42,0.482,0.358,0.372,0.42,0.413,0.399,0.368,0.405,0.481,0.899,0.916,0.863,0.846,0.735
NCI-H2023,0.319,0.377,0.238,0.0537,0.302,0.225,0.14,0.073,0.264,0.194,0.186,0.219,0.179,0.534,0.415,0.439,0.493,0.396
EKVX,0.664,0.625,0.49,0.162,,0.539,0.275,0.224,0.433,0.409,0.442,0.438,0.476,0.85,0.842,0.825,0.763,0.859
EPLC-272H,0.224,0.268,0.165,0.249,0.508,0.547,0.307,0.218,0.3,,0.298,0.303,0.294,0.817,0.716,0.792,0.614,0.689
LCLC-97TM1,0.224,0.207,0.108,0.133,0.0852,0.144,0.0736,0.13,0.187,0.148,0.199,0.215,0.19,0.346,0.387,,0.406,0.256
NCI-H2085,0.435,0.71,0.568,0.495,0.583,0.433,0.423,0.408,0.417,0.369,0.532,0.57,0.395,0.771,0.788,0.766,0.794,0.73
COR-L23,0.578,0.556,0.179,0.145,0.162,0.215,0.191,0.0964,0.8,0.731,0.697,0.876,0.823,0.348,0.328,0.378,0.367,0.311
